Test results taken from patent publication US7884114B2, “Compounds” (Glaxo Group Limited, priority 2007, dated 2011).
Where a name gives a salt, the structure may show the parent alone. Read-outs that look alike come from different tables or passages of the source.

Tests used:
[1] = biological target: T1, human H1 receptor (Homo sapiens, UniProt P35367); assay: Histamine H1 functional antagonist assay (FLIPR): antagonist pA2; type: cell-based
T1 construct: expressed in transfected cells
Description: (§1) The human H1 receptor is cloned using known procedures described in the literature [Biochem. Biophys. Res. Commun., 201(2):894 (1994)]. Chinese hamster ovary (CHO) cells stably expressing the human H1 receptor are generated according to known procedures described in the literature [Br. J. Pharmacol., 117(6):1071 (1996)].
Histamine H1 Functional Antagonist Assay: Determination of Antagonist pA2 and Duration
The histamine H1 receptor expressing CHO cells are seeded into non-coated black-walled clear bottom 96-well tissue culture plates as described above.
Following overnight culture, growth medium is removed from each well, washed with 200 μl PBS and is replaced with 50 μl loading dye (250 μM Brilliant Black, 1 μM Fluo-4 diluted in Tyrodes buffer+probenecid (145 mM NaCl, 2.5 mM KCl, 10 mM HEPES, 10 mM D-glucose, 1.2 mM MgCl2, 1.5 mM CaCl2, 2.5 mM probenecid, pH adjusted to 7.40 with NaOH 1.0 M)). Cells are incubated for 45 min at 37° C. The loading buffer is removed and the cells are washed as above, and 90 μl of Tyrodes buffer+probenecid is added to each well. 10 μl of test compound, diluted to the required concentration in Tyrodes buffer+probenecid (or 10 μl Tyrodes buffer+probenecid as a control) is added to each well and the plate is incubated for 30 min at 37° C., 5% CO2.
The plates are then placed into a FLIPR™ (Molecular Devices, UK) to monitor cell fluorescence (λex=488 nm, λEM=540 nm) in the manner described in Sullivan et al., (In: Lambert D G (ed.), Calcium Signaling Protocols, New Jersey: Humana Press, 1999, 125-136) before and after the addition of 50 μl histamine over a concentration range of 1 mM-0.1 nM. […] The antagonist pA2 is calculated using the following standard equation: pA2=log(DR−1)−log [ B] where DR=dose ratio, defined as EC50antagonist-treated/EC50control and [B]=concentration of antagonist.

[2] = biological target: T1, human H1 receptor; assay: Histamine H1 functional antagonist assay (FLIPR): functional pKi; type: cell-based; settings: CHO cells expressing human H1 receptor, histamine EC80, read-out: average pKi (pKb) at H1 (converted)
Description: as §1
10 μl of test compound, diluted to the required concentration in Tyrodes buffer+probenecid (or 10 μl Tyrodes buffer+probenecid as a control) is added to each well and the plate is incubated for 30 min at 37° C., 5% CO2.

[3] = system: histamine-induced nasal congestion; assay: Intranasal challenge method: whole body plethysmography, histamine-induced nasal congestion; type: in vivo, Dunkin-Hartley guinea pigs; settings: for inhibition of response to histamine challenge: dosed intranasally at 1 mg/ml
Description: Intranasal Challenge Method: Whole Body Plethysmography
Female Dunkin-Hartley guinea pigs 150-250 g are sensitised twice daily for 5 days (week 1) with ovalbumin (OVA) and aluminium hydroxide (Al(OH)3 or Alum) in physiological saline, 25 μl/nostril. Solution is made up at 20 μg/ml OVA, 180 mg/ml Alum. During weeks 2 and 3 animals receive 25 μl/nostril of OVA (5 mg/ml) once daily. During Week 4 guinea pigs will be entered into study but are continually sensitized as per weeks 2 and 3 until the day before dosing with compound or vehicle.
(b) Compound Vehicle Pretreatment
Pretreatment with test compound is performed at various times prior to histamine challenge. Efficacy dose-response curves are determined 1 hr and/or 3 hr after dosing whereas duration of action may be studied up to 7 days post dose (for example, at 24 hours). Test compounds are formulated as solutions in 0.9% sterile saline or suspensions in 0.9% sterile saline/tween80.
Guinea pigs were anaesthetised with isoflurane (5%, 2-31/min O2), placed in a supine position, and 25 μl of test compound or vehicle dosed into each nostril using a Gilson pipette. After dosing, animals remain supine for at least 30 seconds (e.g. 60 seconds) during recovery from anaesthesia.
(c) Histamine Challenge Protocol
G. & Gelfand, E. W. (1997), Noninvasive measurement of airway responsiveness in allergic mice using barometric plethysmography., Am. J. Respir. Crit. Care Med., 156, 766-775.
After the stipulated pre-dose time has been reached, guinea pigs are re-anaesthetised with isoflurane and dosed with either 10 mM or 15 mM histamine or phosphate-buffered saline (PBS), (25 μl per nostril). […] These recordings are summed to give a cumulative AUC over 40 mins post histamine challenge for each animal. Data are analysed using ANOVA with post-hoc Fishers LSD test (general linear models, Statistica®) and finally Hochberg adjustment. Inhibition of histamine-induced congestion is determined by statistically significant differences between the mean responses of compound pre-treated groups compared to the vehicle pre-treated, histamine-challenged group.

[4] = biological target: T1, human H1 receptor; assay: Histamine H1 functional antagonist assay: antagonist duration after washout; type: cell-based; settings: at one or more time points
Description: The human H1 receptor is cloned using known procedures described in the literature [Biochem. Biophys. Res. Commun., 201(2):894 (1994)]. Chinese hamster ovary (CHO) cells stably expressing the human H1 receptor are generated according to known procedures described in the literature [Br. J. Pharmacol., 117(6):1071 (1996)]. […] Following the 30 min antagonist incubation period, the cells are washed two or three times with 200 μl of PBS and then 100 μl Tyrodes buffer is added to each well to initiate antagonist dissociation. […] After this period, the cells are challenged with histamine in the FLIPR™ as described above. […] The decrease in receptor occupancy over time approximates to a straight line and is analysed by linear regression. The slope of this straight line fit is used as an index of the dissociation rate of the antagonist. The dose ratios for antagonist treated cells and for antagonist treated and washed cells at each time point are used to calculate a relative dose ratio (rel DR) which is also used as an index of antagonist duration. Antagonists with long duration of action produce rel DR values close to 1, and antagonists with short duration of action produce rel DR values that approaches the dose ratio value obtained for antagonist treatment alone.

[5] = CHO cells expressing H1 receptor, FLIPR, histamine concentration response curves, read-out: average pA2 (converted)

T1 sequence (P35367 whole entry): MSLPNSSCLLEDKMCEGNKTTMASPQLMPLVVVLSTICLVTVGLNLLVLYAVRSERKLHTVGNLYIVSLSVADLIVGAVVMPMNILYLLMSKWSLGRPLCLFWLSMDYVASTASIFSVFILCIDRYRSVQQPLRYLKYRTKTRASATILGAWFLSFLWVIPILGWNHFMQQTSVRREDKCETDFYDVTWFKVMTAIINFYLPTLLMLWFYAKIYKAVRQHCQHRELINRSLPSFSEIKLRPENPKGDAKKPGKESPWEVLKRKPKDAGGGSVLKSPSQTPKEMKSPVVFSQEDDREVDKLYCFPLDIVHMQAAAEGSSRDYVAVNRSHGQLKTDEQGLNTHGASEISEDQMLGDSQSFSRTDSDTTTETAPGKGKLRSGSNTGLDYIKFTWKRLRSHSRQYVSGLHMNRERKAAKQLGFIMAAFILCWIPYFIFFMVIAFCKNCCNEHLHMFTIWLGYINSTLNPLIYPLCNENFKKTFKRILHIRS

Structure (SMILES)	Kb [1, 5] [nM]	also measured
CCCCc1cc(OC2CCN(CCS(=O)(=O)C(C)(C)C)CC2)c2ncccc2c1 [Example 2, 6-Butyl-8-[(1-{2-[(1,1-dimethylethyl)sulfonyl]ethyl}-4-piperidinyl)oxy]quinoline, dihydrochloride salt]	< 1	–
CCCCc1cc(OC2CCN(CCCS(C)(=O)=O)CC2)c2ncccc2c1 [Example 3, 6-Butyl-8-({1-[3-(methylsulfonyl)propyl]-4-piperidinyl}oxy)quinoline, dihydrochloride salt]	< 10	–
CCCCc1cc(OC2CCN(CCCS(=O)(=O)C3CCCC3)CC2)c2ncccc2c1 [Example 8, 6-Butyl-8-({1-[3-(cyclopentylsulfonyl)propyl]-4-piperidinyl}oxy)quinoline, formate salt (1:1)]	–	Kb [1]: < 100 nM
CCCCCc1cc(OC2CCN(CCCS(=O)(=O)CC)CC2)c2ncccc2c1 [Example 11, 8-({1-[3-(Ethylsulfonyl)propyl]-4-piperidinyl}oxy)-6-pentylquinoline, dihydrochloride salt]	< 1	–
CCCCc1cc(O[C@@H]2CCN(CCCS(=O)(=O)C(C)(C)C)C2)c2ncccc2c1 [Example 12, 6-Butyl-8-[((3R)-1-{3-[(1,1-dimethylethyl)sulfonyl]propyl}-3-pyrrolidinyl)oxy]quinoline, dihydrochloride salt]	< 100	–
CCCCc1cc(OC2CCN(C3CCS(=O)(=O)C3)CC2)c2ncccc2c1 (stereo not drawn) [Example 13, 6-Butyl-8-{[1-(1,1-dioxidotetrahydro-3-thienyl)-4-piperidinyl]oxy}quinoline]	< 100	Ki [2]: < 100 nM
CCCCc1cc(OC2CCN(CCNS(=O)(=O)CC(C)C)CC2)c2ncccc2c1 [Example 15, N-(2-{4-[(6-Butyl-8-quinolinyl)oxy]-1-piperidinyl}ethyl)-2-methyl-1-propanesulfonamide, dihydrochloride salt]	< 10	Ki [2]: < 100 nM
CCCCc1cc(OC2CCN(CCNS(=O)(=O)c3ccccc3)CC2)c2ncccc2c1 [Example 16, N-(2-{4-[(6-Butyl-8-quinolinyl)oxy]-1-piperidinyl}ethyl)benzenesulfonamide, dihydrochloride salt]	< 10	Ki [2]: < 100 nM
CCCCc1cc(OC2CCN(CCCNS(=O)(=O)CCC)CC2)c2ncccc2c1 [Example 18, N-(3-{4-[(6-Butyl-8-quinolinyl)oxy]-1-piperidinyl}propyl)-1-propanesulfonamide, dihydrochloride salt]	< 1	–
CCCCc1cc(OC2CCN(CCCNS(=O)(=O)C(C)C)CC2)c2ncccc2c1 [Example 19, N-(3-{4-[(6-Butyl-8-quinolinyl)oxy]-1-piperidinyl}propyl)-2-propanesulfonamide, dihydrochloride salt]	< 1	–
CCCCc1cc(OC2CCN(CCCCNS(=O)(=O)CC)CC2)c2ncccc2c1.Cl.Cl [Example 23B, N-(4-{4-[(6-Butyl-8-quinolinyl)oxy]-1-piperidinyl}butyl)ethanesulfonamide, dihydrochloride salt]	–	inhibition of response to histamine challenge ([3]; 3 hr before histamine challenge): significantly (p<0.05) inhibited the response; inhibition of response to histamine challenge ([3]; 24 hr before histamine challenge): significantly (p<0.05) inhibited the response
CCCCc1cc(OC2CCN(CCCCNS(=O)(=O)CC(C)C)CC2)c2ncccc2c1 [Example 26, N-(4-{4-[(6-Butyl-8-quinolinyl)oxy]-1-piperidinyl}butyl)-2-methyl-1-propanesulfonamide, dihydrochloride salt]	–	duration of action compared with azelastine [4]: longer duration of action than azelastine
CCCCc1cc(OC2CCN(CCCCNS(=O)(=O)CC3CCCCC3)CC2)c2ncccc2c1 [Example 28, N-(4-{4-[(6-Butyl-8-quinolinyl)oxy]-1-piperidinyl}butyl)-1-cyclohexyl methane sulfonamide, dihydrochloride salt]	< 10	–
CCCCc1cc(OC2CCN(CCCCCNS(C)(=O)=O)CC2)c2ncccc2c1 [Example 31, N-(5-{4-[(6-Butyl-8-quinolinyl)oxy]-1-piperidinyl}pentyl)methanesulfonamide, dihydrochloride salt]	< 1	–
CCCCc1cc(OC2CCN(CCCCCNS(=O)(=O)CC)CC2)c2ncccc2c1 [Example 32, N-(5-{4-[(6-Butyl-8-quinolinyl)oxy]-1-piperidinyl}pentyl)ethanesulfonamide, dihydrochloride salt]	< 1	–
CCCCc1cc(OC2CCN(CCCNC(=O)NCCC)CC2)c2ncccc2c1 [Example 36, N-(3-{4-[(6-Butyl-8-quinolinyl)oxy]-1-piperidinyl}propyl)-N′-propylurea, dihydrochloride salt]	–	Kb [1]: < 1 nM
CN1CCCC(n2nc(Cc3ccc(Cl)cc3)c3ccccc3c2=O)CC1 (stereo not drawn) [azelastine, reference compound]	–	duration of action in intranasal challenge model ([3]; administered at the same concentration (1 mg/ml intranasally)): failed to show a similar duration of action
